{
  "source": "patent US11931424B2",
  "about": "“Combination MCL-1 inhibitors with anti-body drug conjugates” (Gilead Sciences, Inc., priority 2021, dated 2024)",
  "system": "panel of breast cancer cell lines",
  "test": "Compound A with targeted agents and chemotherapies, 72-hour in vitro proliferation assays",
  "type": "cell-based",
  "details": "compound A × partner, 72-hour proliferation",
  "data": [
    {"smiles": "O=C(c1cc(Cc2n[nH]c(=O)c3ccccc23)ccc1F)N1CCN(C(=O)C2CC2)CC1", "note": "[Olaparib]", "values": [
      {"measurement": "Best CI", "setting": "AU565 cell line", "result": 0.75},
      {"measurement": "Bliss Volume", "setting": "AU565 cell line", "result": 2.11},
      {"measurement": "HSA volume", "setting": "AU565 cell line", "result": "−1.92"},
      {"measurement": "Loewe Volume", "setting": "AU565 cell line", "result": 0.98},
      {"measurement": "Synergy Score", "setting": "AU565 cell line", "result": 2.27},
      {"measurement": "Best CI", "setting": "BT-20 cell line", "result": 0.88},
      {"measurement": "Bliss Volume", "setting": "BT-20 cell line", "result": 0.80},
      {"measurement": "HSA volume", "setting": "BT-20 cell line", "result": 0.38},
      {"measurement": "Loewe Volume", "setting": "BT-20 cell line", "result": 0.63},
      {"measurement": "Synergy Score", "setting": "BT-20 cell line", "result": 4.78},
      {"measurement": "Best CI", "setting": "CAL-51 cell line", "result": 0.55},
      {"measurement": "Bliss Volume", "setting": "CAL-51 cell line", "result": 1.50},
      {"measurement": "HSA volume", "setting": "CAL-51 cell line", "result": 1.03},
      {"measurement": "Loewe Volume", "setting": "CAL-51 cell line", "result": 2.21},
      {"measurement": "Synergy Score", "setting": "CAL-51 cell line", "result": 1.89},
      {"measurement": "Best CI", "setting": "CAL-85-1 cell line", "result": 0.67},
      {"measurement": "Bliss Volume", "setting": "CAL-85-1 cell line", "result": 4.52},
      {"measurement": "HSA volume", "setting": "CAL-85-1 cell line", "result": 5.66},
      {"measurement": "Loewe Volume", "setting": "CAL-85-1 cell line", "result": 6.67},
      {"measurement": "Synergy Score", "setting": "CAL-85-1 cell line", "result": 5.10},
      {"measurement": "Best CI", "setting": "CAL-120 cell line", "result": 0.85},
      {"measurement": "Bliss Volume", "setting": "CAL-120 cell line", "result": 3.31},
      {"measurement": "HSA volume", "setting": "CAL-120 cell line", "result": "−3.93"},
      {"measurement": "Loewe Volume", "setting": "CAL-120 cell line", "result": "−3.49"},
      {"measurement": "Synergy Score", "setting": "CAL-120 cell line", "result": 0.11},
      {"measurement": "Best CI", "setting": "CAL-148 cell line", "result": 0.27},
      {"measurement": "Bliss Volume", "setting": "CAL-148 cell line", "result": 3.34},
      {"measurement": "HSA volume", "setting": "CAL-148 cell line", "result": 5.39},
      {"measurement": "Loewe Volume", "setting": "CAL-148 cell line", "result": 5.40},
      {"measurement": "Synergy Score", "setting": "CAL-148 cell line", "result": 9.33},
      {"measurement": "Best CI", "setting": "CAMA-1 cell line", "result": 1.12},
      {"measurement": "Bliss Volume", "setting": "CAMA-1 cell line", "result": 5.62},
      {"measurement": "HSA volume", "setting": "CAMA-1 cell line", "result": 2.59},
      {"measurement": "Loewe Volume", "setting": "CAMA-1 cell line", "result": 3.95},
      {"measurement": "Synergy Score", "setting": "CAMA-1 cell line", "result": 4.78},
      {"measurement": "Best CI", "setting": "DU-4475 cell line", "result": 1.00},
      {"measurement": "Bliss Volume", "setting": "DU-4475 cell line", "result": 7.40},
      {"measurement": "HSA volume", "setting": "DU-4475 cell line", "result": 5.68},
      {"measurement": "Loewe Volume", "setting": "DU-4475 cell line", "result": 5.80},
      {"measurement": "Synergy Score", "setting": "DU-4475 cell line", "result": 4.61},
      {"measurement": "Best CI", "setting": "EVSA-T cell line", "result": 1.17},
      {"measurement": "Bliss Volume", "setting": "EVSA-T cell line", "result": 6.05},
      {"measurement": "HSA volume", "setting": "EVSA-T cell line", "result": 3.16},
      {"measurement": "Loewe Volume", "setting": "EVSA-T cell line", "result": 3.21},
      {"measurement": "Synergy Score", "setting": "EVSA-T cell line", "result": 4.47},
      {"measurement": "Best CI", "setting": "HCC38", "result": 0.72},
      {"measurement": "Bliss Volume", "setting": "HCC38", "result": 6.78},
      {"measurement": "HSA volume", "setting": "HCC38", "result": 7.48},
      {"measurement": "Loewe Volume", "setting": "HCC38", "result": 7.01},
      {"measurement": "Synergy Score", "setting": "HCC38", "result": 8.69},
      {"measurement": "Best CI", "setting": "HCC70", "result": 0.94},
      {"measurement": "Bliss Volume", "setting": "HCC70", "result": 6.93},
      {"measurement": "HSA volume", "setting": "HCC70", "result": 6.07},
      {"measurement": "Loewe Volume", "setting": "HCC70", "result": 6.54},
      {"measurement": "Synergy Score", "setting": "HCC70", "result": 12.18},
      {"measurement": "Best CI", "setting": "HCC1143", "result": 0.24},
      {"measurement": "Bliss Volume", "setting": "HCC1143", "result": 4.87},
      {"measurement": "HSA volume", "setting": "HCC1143", "result": 3.84},
      {"measurement": "Loewe Volume", "setting": "HCC1143", "result": 3.62},
      {"measurement": "Synergy Score", "setting": "HCC1143", "result": 4.20},
      {"measurement": "Best CI", "setting": "HCC1569", "result": 0.84},
      {"measurement": "Bliss Volume", "setting": "HCC1569", "result": 7.47},
      {"measurement": "HSA volume", "setting": "HCC1569", "result": 5.26},
      {"measurement": "Loewe Volume", "setting": "HCC1569", "result": 8.00},
      {"measurement": "Synergy Score", "setting": "HCC1569", "result": 4.98},
      {"measurement": "Best CI", "setting": "HCC1806", "result": 0.21},
      {"measurement": "Bliss Volume", "setting": "HCC1806", "result": 7.25},
      {"measurement": "HSA volume", "setting": "HCC1806", "result": 8.26},
      {"measurement": "Loewe Volume", "setting": "HCC1806", "result": 8.49},
      {"measurement": "Synergy Score", "setting": "HCC1806", "result": 7.73},
      {"measurement": "Best CI", "setting": "HCC1937", "result": 0.63},
      {"measurement": "Bliss Volume", "setting": "HCC1937", "result": 2.27},
      {"measurement": "HSA volume", "setting": "HCC1937", "result": "−1.83"},
      {"measurement": "Loewe Volume", "setting": "HCC1937", "result": 3.06},
      {"measurement": "Synergy Score", "setting": "HCC1937", "result": 1.77},
      {"measurement": "Best CI", "setting": "HCC1954", "result": 0.92},
      {"measurement": "Bliss Volume", "setting": "HCC1954", "result": 1.68},
      {"measurement": "HSA volume", "setting": "HCC1954", "result": 0.48},
      {"measurement": "Loewe Volume", "setting": "HCC1954", "result": 1.64},
      {"measurement": "Synergy Score", "setting": "HCC1954", "result": 4.49},
      {"measurement": "Best CI", "setting": "HCC2218", "result": 0.88},
      {"measurement": "Bliss Volume", "setting": "HCC2218", "result": "−1.34"},
      {"measurement": "HSA volume", "setting": "HCC2218", "result": "−1.12"},
      {"measurement": "Loewe Volume", "setting": "HCC2218", "result": "−1.71"},
      {"measurement": "Synergy Score", "setting": "HCC2218", "result": 2.66},
      {"measurement": "Best CI", "setting": "HDQ-P1", "result": 0.51},
      {"measurement": "Bliss Volume", "setting": "HDQ-P1", "result": 3.81},
      {"measurement": "HSA volume", "setting": "HDQ-P1", "result": "−0.38"},
      {"measurement": "Loewe Volume", "setting": "HDQ-P1", "result": 3.65},
      {"measurement": "Synergy Score", "setting": "HDQ-P1", "result": 1.22},
      {"measurement": "Best CI", "setting": "HMC-1-8", "result": 0.78},
      {"measurement": "Bliss Volume", "setting": "HMC-1-8", "result": 10.54},
      {"measurement": "HSA volume", "setting": "HMC-1-8", "result": 5.78},
      {"measurement": "Loewe Volume", "setting": "HMC-1-8", "result": 6.22},
      {"measurement": "Synergy Score", "setting": "HMC-1-8", "result": 10.86},
      {"measurement": "Best CI", "setting": "JIMT-1", "result": 0.59},
      {"measurement": "Bliss Volume", "setting": "JIMT-1", "result": "−1.42"},
      {"measurement": "HSA volume", "setting": "JIMT-1", "result": "−0.34"},
      {"measurement": "Loewe Volume", "setting": "JIMT-1", "result": "−1.35"},
      {"measurement": "Synergy Score", "setting": "JIMT-1", "result": 0.61},
      {"measurement": "HSA volume", "setting": "KPL-1", "result": 1.49}
    ]}
  ]
}
